Laboratory results from patent publication US7064120B2, “Tricyclic pyridyl carboxamides and derivatives thereof tocolytic oxytocin receptor antagonists” (Wyeth, priority 2001, dated 2006).

molecular target: T1, human oxytocin receptor (Homo sapiens, UniProt P30559); experiment: Oxytocin binding in CHO cell membranes expressing human oxytocin receptors ([3H]oxytocin radioligand binding); conditions: 100 nM
T1 construct: host or cells: CHO cells, stably transfected (pcDNA3.1 vector)
T1 sequence (P30559 1-389): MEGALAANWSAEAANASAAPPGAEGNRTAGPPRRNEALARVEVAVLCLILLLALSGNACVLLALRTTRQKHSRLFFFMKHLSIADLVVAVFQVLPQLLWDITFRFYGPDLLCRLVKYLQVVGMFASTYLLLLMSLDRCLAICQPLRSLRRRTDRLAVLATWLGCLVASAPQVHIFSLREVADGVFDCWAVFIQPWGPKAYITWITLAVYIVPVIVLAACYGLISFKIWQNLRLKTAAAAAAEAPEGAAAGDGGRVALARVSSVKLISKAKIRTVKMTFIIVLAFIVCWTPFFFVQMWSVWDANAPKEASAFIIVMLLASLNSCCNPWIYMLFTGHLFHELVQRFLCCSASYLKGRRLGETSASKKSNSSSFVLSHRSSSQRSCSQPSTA
Procedure: Oxytocin Binding in Chinese Hamster Ovary Cell Membranes Expressing Human Oxytocin Receptors
Cell Culture medium (e.g. 30 mL for 1:30 split) is immediately added and mixed well to inactivate trypsin. 1 mL of detached cells is added to new culture flasks containing fresh Cell Culture medium (e.g. into 25 mL per T-150 flask), and mixed gently. The cells are incubated at 37° C. in 5% CO2. The medium is changed at 3 to 4 days interval (or as appropriate). […] All steps are done under sterile conditions.
The cells are washed twice gently with Hank's Balanced Salt solution (e.g., use 10 mL per T-150 flask). […] The contents are transferred to centrifuge tubes (50 mL size) kept in ice bath. All subsequent steps are done at 4° C. The tubes are centrifuged at 300×g for 15 min (1380 rpm on SORVAL, Model RT6000D, using rotor for 50 mL tubes). The supernatant is discarded and the cells suspended in homogenizing buffer (10 mM Tris-HCl containing 0.25 M sucrose and 1 mM EDTA, pH 7.4) ensuring that the volume of the buffer is about ten times the volume of the cell pellet. The cells are pooled into a centrifuge tube (50 mL) and homogenized with a Polytron at setting 6 for 10 sec. The homogenate is transferred into a Potter-Elvjehm homogenizer and homogenized with 3 strokes. The homogenate is centrifuged at 1500×g for 10 min at 4° C. (3100 rpm using SORVAL, model RT6000D, using a rotor for 50 mL tubes). The pellet is discarded. The supernatant is centrifuged at 100,000×g for 60 min. at 4° C. (Beckman L8-80M ultracentrifuge; spin at 37,500 rpm with rotor type 70 Ti for 50 mL tubes; 38,000 rpm with rotor type 8OTi for 15 mL tubes; or 35,800 rpm with rotor type 45Ti). The supernantant is discarded and the pellet suspended in 3 to 4 mL of Tris buffer (50 mM TRIS-HCl, pH 7.4). The protein content is estimated by the Bradford or Lowry method. The volume of the membrane suspension is adjusted with the membrane buffer (50 mM Tris-HCl containing 0.1% BSA and 0.1 mM PMSF) to give 3.0 mg/mL (or as appropriate) of protein. The membranes are aliquoted and stored at −70° C.
In wells of a 96-well format microtiter plate, is added 90, 110 or 130 μL (to make up a final volume of 200 μL) of assay buffer containing 50 mM of Tris-HCl (pH 7.4), […], 1 mg % aprotinin, 1 mg % leupeptin, 2 mg % 1,10-phenanthroline, 10 mg % trypsin inhibitor, and 0.1 mM PMSF. The inhibitors are added on the day of the experiment. The components are mixed at room temperature, and then kept in ice bath following adjustment of the pH to 7.4. […] For oxytocin and other peptide ligands, 20 μL of 50% DMSO is added and the assay buffer volume is adjusted accordingly. To each well is added 50 μL of frozen membrane suspension thawed immediately prior to use and diluted in assay buffer to the required concentration (equivalent to 25 to 50 μg of protein/well as needed). 20 μL of 8 nM [^3H]oxytocin in the assay buffer, prepared just before use is added and incubated at room temperature for 60 min. shaking the plate on a mechanical shaker for the first 15 min. The incubation is stopped by rapid filtration of the plate contents followed by washing with ice-cold buffer (50 mM Tris-HCl, pH 7.4) using a cell harvester (Tomtek and Printed filtermat-B filter paper). The filter paper is thoroughly dried (7–12 min. in a microwave oven) and impregnated with MeltiLex B/H melt-on scintillation wax sheets and the radioactivity counted in a betaplate scintillation counter.
Binding data is either reported as percent inhibition at a certain concentration or if an IC50 was calculated, as a nanomolar concentration.

Row | SMILES | OT % inhibition @ 100 nM [%]
1 | COc1cccc(-c2ccc(C(=O)N3Cc4ccc(C(=O)NCc5ccncc5)n4Cc4ccccc43)cc2OC)c1 [Example 98] | 39

same assay, conditions: 100 nM, read-out: OT % inhibition @ 100 nM

Row | SMILES | inhibition at 0.1 µM [%]
2 | COc1ccccc1-c1ccc(C(=O)N2Cc3ccc(C(=O)NCc4cccnc4)n3Cc3ccccc32)cc1C [Example 36, 10-[(2′-Methoxy-2-methyl-[1,1′-biphenyl]-4-yl)carbonyl]-N-(3-pyridinylmethyl)-10,11-dihydro-5H-pyrrolo[2,1-c][1,4]benzodiazepine-3-carboxamide] | 46
3 | COc1ccccc1-c1ccc(C(=O)N2Cc3ccc(C(=O)NCc4ccccn4)n3Cc3ccccc32)cc1C [Example 24, 10-[(2′-Methoxy-2-methyl-[1,1′-biphenyl]-4-yl)carbonyl]-N-(2-pyridinylmethyl)-10,11-dihydro-5H-pyrrolo[2,1-c][1,4]benzodiazepine-3-carboxamide] | 50
4 | COc1cc(C(=O)N2Cc3ccc(C(=O)N(C)CCc4ccncc4)n3Cc3ccccc32)ccc1-c1cccc2ccccc12 [Example 134, 10-[3-Methoxy-4-(naphthalen-1-yl)benzoyl]-N-methyl-N-[2-(4-pyridinyl)ethyl]-10,11-dihydro-5H-pyrrolo[2,1-c][1,4]benzodiazepine-3-carboxamide] | 88
5 | Cc1cc(C(=O)N2Cc3ccc(C(=O)N(C)CCc4ccncc4)n3Cc3ccccc32)ccc1-c1ccccc1C(F)(F)F [Example 137, N-Methyl-10-{[2-methyl-2′-trifluoromethyl-[1,1′-biphenyl]-4-yl]carbonyl}-N-[2-(4-pyridinyl)ethyl]-10,11-dihydro-5H-pyrrolo[2,1-c][1,4]benzodiazepine-3-carboxamide] | 95
6 | COc1ccccc1-c1ccc(C(=O)N2Cc3ccc(C(=O)N4CCN(c5ccncc5)CC4)n3Cc3ccccc32)cc1 [Example 116, {10-[(2′-Methoxy-[1,1′-biphenyl]-4-yl)carbonyl]-10,11-dihydro-5H-pyrrolo[2,1-c][1,4]benzodiazepin-3-yl}[4-(4-pyridinyl)-1-piperazinyl]methanone] | 101
7 | COc1cccc(-c2ccc(C(=O)N3Cc4ccc(C(=O)N5CCN(c6ccncc6)CC5)n4Cc4ccccc43)cc2OC)c1 [Example 123, {10-[(2,3′-Dimethoxy-[1,1′-biphenyl]-4-yl)carbonyl]-10,11-dihydro-5H-pyrrolo[2,1-c][1,4]benzodiazepin-3-yl}[4-(4-pyridinyl)-1-piperazinyl]methanone] | 95
8 | Cc1ccccc1-c1ccc(C(=O)N2Cc3ccc(C(=O)NCCc4ccccn4)n3Cc3ccccc32)cc1 [Example 53, 10-[(2′-Methyl-[1,1′-biphenyl]-4-yl)carbonyl]-N-[2-(2-pyridinyl)ethyl]-10,11-dihydro-5H-pyrrolo[2,1-c][1,4]benzodiazepine-3-carboxamide] | 6
9 | COc1cc(-c2ccccc2C)c(Cl)cc1C(=O)N1Cc2ccc(C(=O)NCc3ccccn3)n2Cc2ccccc21 [Example 29, 10-[(6-Chloro-3-methoxy-2′-methyl-[1,1′-biphenyl]-4-yl)carbonyl]-N-(2-pyridinylmethyl)-10,11-dihydro-5H-pyrrolo[2,1-c][1,4]benzodiazepine-3-carboxamide] | 42
10 | COc1ccccc1-c1ccc(C(=O)N2Cc3ccc(C(=O)N4CCCCC4c4cccnc4)n3Cc3ccccc32)cc1C (stereo not shown) [Example 138, {10-[(2′-Methoxy-2-methyl-[1,1′-biphenyl]-4-yl)carbonyl]-10,11-dihydro-5H-pyrrolo[2,1-c][1,4]benzodiazepin-3-yl}[2-(3-pyridinyl)-1-piperidinyl]methanone] | 97
11 | CN(CCc1ccncc1)C(=O)c1ccc2n1Cc1ccccc1N(C(=O)c1ccc(-c3cccc4ccccc34)cc1Cl)C2 [Example 136, 10-[2-Chloro-4-(naphthalen-1-yl)benzoyl]-N-methyl-N-[2-(4-pyridinyl)ethyl]-10,11-dihydro-5H-pyrrolo[2,1-c][1,4]benzodiazepine-3-carboxamide] | 44
12 | Cc1cc(C(=O)N2Cc3ccc(C(=O)N4CCCCC4c4cccnc4)n3Cc3ccccc32)ccc1-c1ccccc1C(F)(F)F (stereo not shown) [Example 142, (10-{[2-Methyl-2′-trifluoromethyl-[1,1′-biphenyl]-4-yl]carbonyl}-10,11-dihydro-5H-pyrrolo[2,1-c][1,4]benzodiazepin-3-yl)[2-(3-pyridinyl)-1-piperidinyl]methanone] | 93
13 | COc1cc(C(=O)N2Cc3ccc(C(=O)NCc4ccccn4)n3Cc3ccccc32)ccc1-c1cccc2ccccc12 [Example 31, 10-[3-Methoxy-4-(naphthalen-1-yl)benzoyl]-N-(2-pyridinylmethyl)-10,11-dihydro-5H-pyrrolo[2,1-c][1,4]benzodiazepine-3-carboxamide] | 18
14 | COc1cccc(-c2ccc(C(=O)N3Cc4ccc(C(=O)N(C)CCc5ccncc5)n4Cc4ccccc43)cc2C)c1 [Example 128, 10-[(3′-Methoxy-2-methyl-[1,1′-biphenyl]-4-yl)carbonyl]-N-methyl-N-[2-(4-pyridinyl)ethyl]-10,11-dihydro-5H-pyrrolo[2,1-c][1,4]benzodiazepine-3-carboxamide] | 88
15 | COc1cccc(-c2ccc(C(=O)N3Cc4ccc(C(=O)NCCc5ccccn5)n4Cc4ccccc43)cc2OC)c1 [Example 59, 10-[(2,3′-Dimethoxy-[1,1′-biphenyl]-4-yl)carbonyl]-N-[2-(2-pyridinyl)ethyl]-10,11-dihydro-5H-pyrrolo[2,1-c][1,4]benzodiazepine-3-carboxamide] | 40
16 | COc1ccccc1-c1ccc(C(=O)N2Cc3ccc(C(=O)NCCc4ccccn4)n3Cc3ccccc32)cc1 [Example 52, 10-[(2′-Methoxy-[1,1′-biphenyl]-4-yl)carbonyl]-N-[2-(2-pyridinyl)ethyl]-10,11-dihydro-5H-pyrrolo[2,1-c][1,4]benzodiazepine-3-carboxamide] | 51
17 | COc1cccc(-c2ccc(C(=O)N3Cc4ccc(C(=O)NCCc5ccccn5)n4Cc4ccccc43)cc2C)c1 [Example 51, 10-[(3′-Methoxy-2-methyl-[1,1′-biphenyl]-4-yl)carbonyl]-N-[2-(2-pyridinyl)ethyl]-10,11-dihydro-5H-pyrrolo[2,1-c][1,4]benzodiazepine-3-carboxamide] | 31
18 | COc1ccccc1-c1ccc(C(=O)N2Cc3ccc(C(=O)N(C)CCc4ccncc4)n3Cc3ccccc32)cc1 [Example 129, 10-[(2′-Methoxy-[1,1′-biphenyl]-4-yl)carbonyl]-N-methyl-N-[2-(4-pyridinyl)ethyl]-10,11-dihydro-5H-pyrrolo[2,1-c][1,4]benzodiazepine-3-carboxamide] | 98
19 | COc1cc(C(=O)N2Cc3ccc(C(=O)N(C)CCc4ccccn4)n3Cc3ccccc32)ccc1-n1c(C)ccc1C [Example 144, 10-[4-(2,5-Dimethyl-1H-pyrrol-1-yl)-3-methoxybenzoyl]-N-methyl-N-[2-(pyridin-2-yl)ethyl]-10,11-dihydro-5H-pyrrolo[2,1-c][1,4]benzodiazepine-3-carboxamide] | 57
